Data as given in PMC5865651, “Novel inhibitor candidates of TRPV2 prevent damage of dystrophic myocytes and ameliorate against dilated cardiomyopathy in a hamster model” (Oncotarget, 2018).
pIC50: −log10 of the molar value. Blank lines part the entries; values can stand above or below the compound they belong to.

Columns and labels:
mouse TRPV2 (mTRPV2) = molecular target: T1, mouse TRPV2 (mTRPV2) (Mus musculus, UniProt Q9WTR1); experiment: 2-APB-induced increase in [Ca2+]i in HEK293 cells expressing mTRPV2 (fura-2, microplate reader / imaging); format: cell-based; conditions: for Ca2+ responses elicited by TRPV2 agonists (initial assessment): cell-based assay, before optimisation of conditions; for inhibition of the 2-APB-induced increase in [Ca2+]i / pIC50: HEK293 cells expressing mTRPV2, 2-APB 0.3 mM, CaCl2 5 mM, pH 6.5; for inhibition of the 2-APB-induced increase in [Ca2+]i: concentrations up to 100 μM; for pIC50: read-out: IC50 for the 2-APB-induced increase in [Ca2+]i (Ca2+ response)
T1 construct: expressed in transfected cells
T1 sequence (Q9WTR1 1-756): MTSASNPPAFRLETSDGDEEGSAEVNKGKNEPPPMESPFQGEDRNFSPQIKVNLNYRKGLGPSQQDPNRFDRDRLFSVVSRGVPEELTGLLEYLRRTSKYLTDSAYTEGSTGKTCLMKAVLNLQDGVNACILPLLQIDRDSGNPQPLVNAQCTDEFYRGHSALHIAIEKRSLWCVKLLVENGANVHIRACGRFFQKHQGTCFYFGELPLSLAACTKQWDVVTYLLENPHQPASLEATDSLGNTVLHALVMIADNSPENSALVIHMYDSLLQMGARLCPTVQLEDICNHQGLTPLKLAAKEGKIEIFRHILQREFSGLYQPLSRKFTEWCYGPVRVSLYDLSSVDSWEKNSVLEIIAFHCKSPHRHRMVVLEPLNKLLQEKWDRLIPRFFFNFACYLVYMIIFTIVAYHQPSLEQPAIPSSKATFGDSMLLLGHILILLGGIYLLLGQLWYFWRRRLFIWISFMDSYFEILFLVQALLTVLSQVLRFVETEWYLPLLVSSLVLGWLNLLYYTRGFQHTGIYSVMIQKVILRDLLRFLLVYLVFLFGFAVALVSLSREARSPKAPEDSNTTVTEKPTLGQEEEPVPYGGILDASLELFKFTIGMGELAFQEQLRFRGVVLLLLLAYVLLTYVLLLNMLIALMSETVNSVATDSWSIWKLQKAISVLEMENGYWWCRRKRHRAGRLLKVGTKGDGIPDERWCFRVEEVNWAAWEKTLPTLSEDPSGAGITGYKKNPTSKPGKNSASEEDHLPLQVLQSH
Experimental: HEK293 cells expressing mouse TRPV2 (mTRPV2) and non-transfected HEK293 cells were loaded with fura-2-AM and placed in low CaCl2 medium (0.5 mM).
For the drug screening, we designed a method involving measurement of the Ca^2+ response using a 96-well high-throughput plate-reader. Cells were placed in low CaCl2 (0.5 mM) medium, which was replaced with high CaCl2 medium (5 mM) with or without the TRPV agonist 2-APB and adjusted to various pH values.
(§1) [Ca^2+]i was measured by a ratiometric fluorescence method as previously described. Briefly, HEK293 cells were loaded with 4 μM fura-2-AM for 30 min at 37° C and maintained in balanced salt solution (BSS) (146 mM NaCl, 4 mM KCl, 2 mM MgCl2, 0.5 mM CaCl2, 10 mM glucose, 0.1% bovine serum albumin, and 10 mM HEPES/Tris, pH 7.4). Fura-2-AM fluorescence was measured using an Aquacosmos fluorescence image processor (Hamamatsu Photonics, Hamamatsu, Japan). The time-course data are presented as the ratio of fluorescence at an excitation wavelength of 340 nm to that at 380 nm. The increase in the fluorescence ratio induced by the TRPV2 agonist 2-APB or high extracellular Ca^2+ (ΔR) was normalized to the initial ratio (R0) before stimulation. The fluorescence relative ratio (ΔR/R0) was plotted as the summary data in the fluorescence imaging analysis.
For screening, cells were plated in 96-well plates and the fura-2-AM fluorescence ratio at excitation wavelengths of 340 nm and 380 nm was monitored using a GENios Pro microplate reader (Tecan, Research Triangle Park, NC, USA) or POLARstar Omega (BMG Labtech, Germany). Cells were stimulated in BSS containing 5 mM CaCl2. […] All Ca^2+ measurements were carried out at room temperature. […] For simplicity, the results are presented as normalized values (% maximum) from the microplate reader experiment.

TRPV2 [1] = system: TRPV2; set-up: method as in PMID 17673572; conditions: cited from earlier work
mTRPV2 channel = molecular target: T2, mTRPV2 channel (Mus musculus, UniProt Q9WTR1); experiment: Whole-cell patch clamp of 2-APB-evoked mTRPV2 current in HEK293 cells; format: cell-based; conditions: tranilast 100 μM; 200 μM 2-APB; data not shown
T2 construct: expressed in transfected cells
T2 sequence (Q9WTR1 1-756): T1 sequence (Q9WTR1 1-756)
Experimental: The fluorescence ratio was measured by a microplate reader and normalized by the maximal value. Data are shown as mean ± SD (n = 5). […] The current values at −100 mV measured by an every-2-second ramp protocol were plotted. […] The current waveforms of the control cells and the cells 11 minutes after application of 15 μM lumin were superimposed. The L-type Ca^2+ channel currents were elicited by depolarizing pulses of 0 mV for 200 milliseconds from −80 mV.
TRPV2 currents were recorded under voltage-clamp conditions by the whole-cell patch-clamp technique. Patch pipettes (2–5 MΩ) were filled with an intracellular solution containing 110 mM K-aspartate, 30 mM KCl, 10 mM NaCl, 1 mM MgCl2, 10 mM BAPTA, 10 mM HEPES, and 3 mM MgATP (adjusted to pH 7.2 with KOH). The extracellular solution contained 145 mM NaCl, 5 mM KCl, 1.5 mM MgCl2, 1 mM EGTA, 10 mM HEPES, and 10 mM glucose (pH was adjusted to 6.5 with NaOH). Because TRPV2 was reported to desensitize in the presence of extracellular Ca^2+ [41], we used nominally Ca^2+-free medium containing 1 mM EGTA to prevent desensitization. In the experiments confirming the pH dependence of the response, the pH was adjusted to 7.4. In the whole-cell recordings, the membrane potential of the cell was held at −60 mV, while voltage ramps of 400 ms from −100 mV to +60 mV were applied every 2 seconds. Currents through the electrode were recorded at 5 kHz and filtered at 2 kHz by an Axopatch 200B amplifier (Molecular Devices, LLC, Sunnyvale, CA, USA). The junctional potential was −11.7 mV.

TRPV2 [2] = system: TRPV2; set-up: method as in PMID 21147993; conditions: TRPV2-transfected HEK293 cells; cited from earlier work
[3] = system: cardiomyopathic J2N-k hamsters; experiment: Cardiomyopathy in J2N-k hamsters in vivo (echocardiography, serum cTN-I, Masson's trichrome fibrosis); set-up: species or system hamster; conditions: 300 mg/kg/day mixed with feed, 3 weeks
Experimental: Male δ-SG-deficient cardiomyopathic J2N-k and age-matched wild-type J2N-n hamsters (9 weeks old) were purchased from Japan SLC, Inc. (Shizuoka, Japan). Tranilast was ingested mixed with feed (300 mg/kg/day) as described previously, whereas other drugs (Figure 1) were administered orally in the drinking water at doses of 30 mg/kg (except lumin) per day for 3 weeks. In case of lumin, we first performed dose-dependent experiment at dose of 1,10 and100 mg/kg per day for 3 weeks, in order to determine the effective dose. […] After drug treatment, serum cardiac troponin (cTN)-I was measured and echocardiography analysis was performed. Histochemistry of cardiac muscles was performed as previously described. All animal experiments were performed according to the Guidelines for Animal Experimentation of the National Cerebral and Cardiovascular Center Research Institute.
Ventricles were fixed in phosphate-buffered saline containing 10% formalin and embedded in paraffin. Serial sections were cut at a thickness of 5 μm and stained with Masson's trichrome stain for morphological analysis. Sections were viewed under a BX41 light microscope (Olympus, Tokyo, Japan). Images were acquired with an FX380 digital camera (Olympus) and analysed using an FLVFS-LS imaging system (Flovel, Tokyo, Japan).
Fibrosis was assessed by measuring Masson's trichrome-positive areas. Briefly, colour images were converted to binary form by setting the threshold value so as to detect only blue-stained fibrotic areas, which were summed and reported as a percentage of the total.
Cardiac function was evaluated by echocardiography using a Sonos5500 ultrasound system (Hewlett-Packard, Palo Alto, CA, USA) with a 12-MHz transducer and M-mode imaging. The animals were sedated with tribromoethanol (350 mg/kg by intraperitoneal injection) during the process.
(§2) Creatine phosphokinase (CK) activity in the medium was determined using an in vitro colorimetric assay kit (CK Test Kit; Wako Pure Chemical Industries, Ltd., Osaka, Japan) according to the manufacturer's protocol The cTN-I level in the serum was measured, while quantitative immunoblotting and immunocytochemistry were performed as previously described. Protein concentration was measured using the bicinchoninic acid assay (Pierce Chemical Co., Rockford, IL, USA) with bovine serum albumin as the standard. All histochemical and physiological analyses were performed by investigators blinded to the drug treatments. Unless otherwise stated, results are presented as the mean ± SD of at least 5 determinations. The unpaired Student's t-test and one-way ANOVA followed by Dunnett's test were used to analyse the data. Values of P < 0.05 (indicated as asterisks in the figures) were considered statistically significant. All cellular measurements were repeated at least 5 times. Representative data are shown.

J2N-k myocytes = experiment: Stretch-induced CK release from J2N-k myocytes; format: cell-based, hamster; conditions: 500 μM, 30 min pretreatment, cyclic stretch 20% elongation 1 h
Experimental: as §2

hTRPC1 = molecular target: T3, hTRPC1 (Homo sapiens, UniProt P48995); experiment: Store-operated Ca2+ entry after thapsigargin in hTRPC1-transfected HEK293 cells; format: cell-based; conditions: hTRPC1-transfected HEK293 cells; thapsigargin; compound 100 μM
T3 construct: expressed in transfected cells; host or cells: HEK293 cells
T3 sequence (P48995 whole entry): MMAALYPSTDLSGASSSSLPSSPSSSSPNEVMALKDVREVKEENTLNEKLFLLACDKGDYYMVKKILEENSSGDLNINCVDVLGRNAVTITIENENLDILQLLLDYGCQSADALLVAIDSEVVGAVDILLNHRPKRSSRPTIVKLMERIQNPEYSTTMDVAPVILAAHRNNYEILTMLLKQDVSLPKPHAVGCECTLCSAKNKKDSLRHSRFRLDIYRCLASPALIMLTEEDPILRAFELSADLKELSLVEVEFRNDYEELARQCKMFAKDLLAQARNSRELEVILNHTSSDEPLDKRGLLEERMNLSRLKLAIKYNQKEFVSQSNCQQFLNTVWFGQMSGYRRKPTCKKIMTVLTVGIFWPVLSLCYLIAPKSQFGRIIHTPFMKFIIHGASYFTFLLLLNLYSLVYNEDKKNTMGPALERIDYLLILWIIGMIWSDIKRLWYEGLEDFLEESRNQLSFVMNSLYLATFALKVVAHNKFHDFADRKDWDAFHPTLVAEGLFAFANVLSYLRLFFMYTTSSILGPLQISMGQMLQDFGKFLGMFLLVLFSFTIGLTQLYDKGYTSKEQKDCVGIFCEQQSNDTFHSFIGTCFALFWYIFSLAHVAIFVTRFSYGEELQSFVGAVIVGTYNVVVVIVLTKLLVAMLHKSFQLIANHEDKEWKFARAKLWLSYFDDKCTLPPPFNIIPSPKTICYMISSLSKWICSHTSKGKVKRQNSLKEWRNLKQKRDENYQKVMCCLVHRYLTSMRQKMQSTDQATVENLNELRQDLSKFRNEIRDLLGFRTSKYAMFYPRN
Experimental: Figure 4 Effects of inhibitor compounds on the Ca^2+ response of cells expressing hTRPV1, hTRPV2, or hTRPC1 (A) Effect of compounds on CaCl2 (5 mM)-induced peak fluorescence ratio in non-transfected (nt) or hTRPV2-transfected CHO cells. The extracellular Ca^2+-dependent increase in the ratio of fura-2 fluorescence intensity at 340/380 nm (ΔR, 2 min after addition of chemicals) was plotted as ΔR/R0 after normalising to the initial fluorescence ratio (R0). […] Solid bar, no inhibitor. (B) Effect of compounds on 2-APB (1 mM)/high extracellular CaCl2-induced peak fluorescence ratio in nt or hTRPV1-transfected HEK293 cells. […] (C) Effect of compounds on store-operated Ca^2+ entry in nt or hTRPC1-transfected HEK293 cells. Cells were treated with the endoplasmic reticulum Ca^2+ pump inhibitor thapsigargin and exposed to CaCl2 and the indicated compounds. ΔR was measured 2 min after the addition of CaCl2. […] Data are shown as mean ± SD (n = 5).
as §1, with “Briefly, HEK293 cells were loaded with 4 μM fura-2-AM for 30 min at 37° C and maintained in balanced salt solution (BSS) (146 mM NaCl, 4 mM KCl, 2 mM MgCl2, 0.5 mM CaCl2, 10 mM glucose, 0.1% bovine serum albumin, and 10 mM HEPES/Tris, pH 7.4).” left out

Compound: C=C(C)[C@@H]1CCC(C)=C[C@H]1c1c(O)cc(CCCCC)cc1O [cannabidiol]
Ca2+ responses elicited by TRPV2 agonists (initial assessment) (mouse TRPV2 (mTRPV2)): too small

Ca2+ responses elicited by TRPV2 agonists (initial assessment) (mouse TRPV2 (mTRPV2)): too small
Compound: CCCN(CCC)S(=O)(=O)c1ccc(C(=O)O)cc1 [probenecid]

Compound: CC[N+](CC)(CC)CC [tetraethylammonium]
effective doses for inhibition of TRPV2 activation (TRPV2 [1]): 100 to 1000 µM

Compound: Nc1ccncc1 [4-amino-pyridine]
effective doses for inhibition of TRPV2 activation (TRPV2 [1]): 100 to 1000 µM

inhibition of the 2-APB-induced increase in [Ca2+]i (mouse TRPV2 (mTRPV2)): did not inhibit
Compound: CC(C)c1ccc(C(=O)NC(=N)N)cc1S(C)(=O)=O [cariporide]

Compound: FC(F)(F)c1ccccc1-n1ccnc1 [1-(2-(trifluoromethyl)phenyl)imidazole]
effective doses for inhibition of TRPV2 activation (TRPV2 [1]): 100 to 1000 µM

inhibition of the 2-APB-induced increase in [Ca2+]i (mouse TRPV2 (mTRPV2)): did not inhibit
Compound: COc1ccc([C@@H]2Sc3ccccc3N(CCN(C)C)C(=O)[C@@H]2OC(C)=O)cc1 [diltiazem]

inhibition of the 2-APB-induced increase in [Ca2+]i (mouse TRPV2 (mTRPV2)): did not inhibit
Compound: [H]/N=C(/N)N[C@H]1[C@H](O)[C@@H](O)[C@H](O[C@@H]2O[C@@H](C)[C@](O)(C=O)[C@H]2O[C@@H]2O[C@@H](CO)[C@H](O)[C@@H](O)[C@@H]2NC)[C@@H](N/C(N)=N\[H])[C@@H]1O [streptomycin]

pIC50 (mouse TRPV2 (mTRPV2)): ≤ 5.00 | effect on TRPV2 channel activity (mTRPV2 channel): did not inhibit
Compound: COc1ccc(/C=C/C(=O)Nc2ccccc2C(=O)O)cc1OC [tranilast, N-[3,4-dimethoxycinnamonyl]-anthranilic acid]
effect on pressure-induced inward current (TRPV2 [2]): blocked | effect on fibrosis (Masson's trichrome) [3]: prevented fibrosis | effect on fractional shortening (FS) [3]: prevented | effect on left ventricular end-diastolic dimension (LVDd) [3]: small effect | effect on left ventricular end-systolic dimension (LVDs) [3]: prevented the increase | effect on serum level of cTN-I [3]: reduced | reduction of stretch-induced CK release (J2N-k myocytes): up to 70%

pIC50 (mouse TRPV2 (mTRPV2)): ≤ 5.00 | effect on store-operated increase in [Ca2+]i (hTRPC1): strongly inhibited
Compound: COc1ccc(CCCOC(Cn2ccnc2)c2ccc(OC)cc2)cc1 (stereo not drawn) [SKF96365, 1-[β-[3-(4-methoxyphenyl)propoxy]-4-methoxyphenethyl]-1H-imidazole]
